Target: Beta-3 Adrenergic Receptor (Homo sapiens (Human), UniProt P13945)
Test: HTRF cAMP antagonist assay (IC50 determination)
Type: cell-based
Settings: CHO-K1 cells stably expressing recombinant receptor; antagonism of isoproterenol at EC90; cAMP readout
Outline: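 In this functional readout, recombinant CHO-K1 cells received compound, then isoproterenol at its EC90. After 1 h at room temperature, cAMP levels were determined by HTRF using an on-plate standard curve, and IC50 values were fitted.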

Sequence of Beta-3 Adrenergic Receptor (P13945 whole entry, species assumed): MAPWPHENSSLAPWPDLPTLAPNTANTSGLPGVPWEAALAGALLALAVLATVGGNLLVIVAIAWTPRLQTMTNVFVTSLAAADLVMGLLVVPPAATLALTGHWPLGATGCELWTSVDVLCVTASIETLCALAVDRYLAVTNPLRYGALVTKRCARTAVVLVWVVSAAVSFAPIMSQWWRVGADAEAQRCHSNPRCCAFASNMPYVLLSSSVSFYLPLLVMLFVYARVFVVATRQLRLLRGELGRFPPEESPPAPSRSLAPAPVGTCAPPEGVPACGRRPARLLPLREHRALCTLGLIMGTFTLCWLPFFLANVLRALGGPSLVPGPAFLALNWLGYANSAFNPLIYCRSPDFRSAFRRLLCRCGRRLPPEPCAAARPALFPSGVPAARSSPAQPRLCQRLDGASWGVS

## O=S(=O)(c1cccc(OC[C@@H](O)CN[C@H]2COC3(CCN(S(=O)(=O)c4c[nH]c5ccccc45)CC3)C2)c1)C1CC1 [Compound 308, (S)-1-((R)-8-(1H-indol-3-ylsulfonyl)-1-oxa-8-azaspiro[4.5]decan-3-ylamino)-3-(3-(cyclopropylsulfonyl)phenoxy)propan-2-ol]
  IC50: 34.5 nM

## CS(=O)(=O)c1cccc(OC[C@@H](O)CN[C@H]2COC3(CCN(S(=O)(=O)c4c[nH]c5ccccc45)CC3)C2)c1 [Compound 311, (S)-1-((R)-8-(1H-indol-3-ylsulfonyl)-1-oxa-8-azaspiro[4.5]decan-3-ylamino)-3-(3-(methylsulfonyl)phenoxy)propan-2-ol]
  IC50: 43.5 nM

## COCS(=O)(=O)c1cccc(OC[C@@H](O)CN[C@H]2COC3(CCN(S(=O)(=O)c4c[nH]c5ccccc45)CC3)C2)c1 [Compound 312, (S)-1-((R)-8-(1H-indol-3-ylsulfonyl)-1-oxa-8-azaspiro[4.5]decan-3-ylamino)-3-(3-(methoxymethylsulfonyl)phenoxy)propan-2-ol]
  IC50: 31.5 nM

## O=C1Cc2cc(S(=O)(=O)N3CCC4(CC3)C[C@@H](NC[C@H](O)COc3cccc(S(=O)(=O)C5CC5)c3)CO4)cnc2N1 [Compound 313, 5-((R)-3-((S)-3-(3-(cyclopropylsulfonyl)phenoxy)-2-hydroxypropylamino)-1-oxa-8-azaspiro[4.5]decan-8-ylsulfonyl)-1H-pyrrolo[2,3-b]pyridin-2(3H)-one]
  IC50: 141 nM

## CCn1cc(S(=O)(=O)N2CCC3(CC2)C[C@@H](NC[C@H](O)COc2cccc(S(=O)(=O)C4CC4)c2)CO3)c(=O)c2cc(F)ccc21 [Compound 314, 3-((R)-3-((S)-3-(3-(cyclopropylsulfonyl)phenoxy)-2-hydroxypropylamino)-1-oxa-8-azaspiro[4.5]decan-8-ylsulfonyl)-1-ethyl-6-fluoroquinolin-4(1H)-one]
  IC50: 270 nM

## CCn1cc(S(=O)(=O)N2CCC3(CC2)C[C@@H](NC[C@H](O)COc2cccc(S(=O)(=O)C4CC4)c2)CO3)c(=O)c2cccc(C)c21 [Compound 315, 3-((R)-3-((S)-3-(3-(cyclopropylsulfonyl)phenoxy)-2-hydroxypropylamino)-1-oxa-8-azaspiro[4.5]decan-8-ylsulfonyl)-1-ethyl-8-methylquinolin-4(1H)-one]
  IC50: 23.9 nM

## CCn1cc(S(=O)(=O)N2CCC3(CC2)C[C@@H](NC[C@H](O)COc2cccc(S(=O)(=O)C4CC4)c2)CO3)c(=O)c2ccc(F)cc21 [Compound 316, 3-((R)-3-((S)-3-(3-(cyclopropylsulfonyl)phenoxy)-2-hydroxypropylamino)-1-oxa-8-azaspiro[4.5]decan-8-ylsulfonyl)-1-ethyl-7-fluoroquinolin-4(1H)-one]
  IC50: 63.8 nM

## CCn1cc(S(=O)(=O)N2CCC3(CC2)C[C@@H](NC[C@H](O)COc2cccc(S(=O)(=O)C4CC4)c2)CO3)c(=O)c2cc(C)ccc21 [Compound 317, 3-((R)-3-((S)-3-(3-(cyclopropylsulfonyl)phenoxy)-2-hydroxypropylamino)-1-oxa-8-azaspiro[4.5]decan-8-ylsulfonyl)-1-ethyl-6-methylquinolin-4(1H)-one]
  IC50: 104 nM

## CCn1cc(S(=O)(=O)N2CCC3(CC2)C[C@@H](NC[C@H](O)COc2cccc(S(=O)(=O)C4CC4)c2)CO3)c(=O)c2ccc(C)cc21 [Compound 318, 3-((R)-3-((S)-3-(3-(cyclopropylsulfonyl)phenoxy)-2-hydroxypropylamino)-1-oxa-8-azaspiro[4.5]decan-8-ylsulfonyl)-1-ethyl-7-methylquinolin-4(1H)-one]
  IC50: 95.2 nM

## O=S(=O)(c1cccc(OC[C@@H](O)CN[C@H]2COC3(CCN(S(=O)(=O)c4cnc5cn[nH]c5c4)CC3)C2)c1)C1CC1 [Compound 319, (S)-1-((R)-8-(1H-pyrazolo[4,3-b]pyridin-6-ylsulfonyl)-1-oxa-8-azaspiro[4.5]decan-3-ylamino)-3-(3-(cyclopropylsulfonyl)phenoxy)propan-2-ol]
  IC50: 16.5 nM

## CS(=O)(=O)c1cccc(OC[C@@H](O)CN[C@H]2COC3(CCN(S(=O)(=O)c4cnc5cc[nH]c5c4)CC3)C2)c1 [Compound 320, (S)-1-((R)-8-(1H-pyrrolo[3,2-b]pyridin-6-ylsulfonyl)-1-oxa-8-azaspiro[4.5]decan-3-ylamino)-3-(3-(methylsulfonyl)phenoxy)propan-2-ol]
  IC50: 11.2 nM

## CC(C)S(=O)(=O)c1cccc(OC[C@@H](O)CN[C@H]2COC3(CCN(S(=O)(=O)c4cnc5cc[nH]c5c4)CC3)C2)c1 [Compound 321, (S)-1-((R)-8-(1H-pyrrolo[3,2-b]pyridin-6-ylsulfonyl)-1-oxa-8-azaspiro[4.5]decan-3-ylamino)-3-(3-(isopropylsulfonyl)phenoxy)propan-2-ol]
  IC50: 17.8 nM

## CCn1cc(S(=O)(=O)N2CCC3(CC2)C[C@@H](NC[C@H](O)COc2cccc(S(C)(=O)=O)c2)CO3)c(=O)c2cccc(F)c21 [Compound 322, 1-ethyl-8-fluoro-3-((R)-3-((S)-2-hydroxy-3-(3-(methylsulfonyl)phenoxy)propylamino)-1-oxa-8-azaspiro[4.5]decan-8-ylsulfonyl)quinolin-4(1H)-one]
  IC50: 21.8 nM

## CC(C)S(=O)(=O)c1cccc(OC[C@@H](O)CN[C@H]2COC3(CCN(S(=O)(=O)c4cnc5c(F)cccc5c4O)CC3)C2)c1 [Compound 323, 8-fluoro-3-((R)-3-((S)-2-hydroxy-3-(3-(isopropylsulfonyl)phenoxy)propylamino)-1-oxa-8-azaspiro[4.5]decan-8-ylsulfonyl)quinolin-4-ol]
  IC50: 49.6 nM

## Cc1ccc2ncc(S(=O)(=O)N3CCC4(CC3)C[C@@H](NC[C@H](O)COc3cccc(S(=O)(=O)C5CC5)c3)CO4)c(O)c2c1 [Compound 324, 3-((R)-3-((S)-3-(3-(cyclopropylsulfonyl)phenoxy)-2-hydroxypropylamino)-1-oxa-8-azaspiro[4.5]decan-8-ylsulfonyl)-6-methylquinolin-4-ol]
  IC50: 22.5 nM

## O=S(=O)(c1cccc(OC[C@@H](O)CN[C@H]2COC3(CCN(S(=O)(=O)c4cnc5ccc(F)cc5c4O)CC3)C2)c1)C1CC1 [Compound 325, 3-((R)-3-((S)-3-(3-(cyclopropylsulfonyl)phenoxy)-2-hydroxypropylamino)-1-oxa-8-azaspiro[4.5]decan-8-ylsulfonyl)-6-fluoroquinolin-4-ol]
  IC50: 34 nM

## O=c1c(S(=O)(=O)N2CCC3(CC2)C[C@@H](NC[C@H](O)COc2cccc(S(=O)(=O)C4CC4)c2)CO3)c[nH]c2ccccc12 [Compound 326, 3-((R)-3-((S)-3-(3-(cyclopropylsulfonyl)phenoxy)-2-hydroxypropylamino)-1-oxa-8-azaspiro[4.5]decan-8-ylsulfonyl)quinolin-4(1H)-one]
  IC50: 17.3 nM

## Cc1cccc2c(O)c(S(=O)(=O)N3CCC4(CC3)C[C@@H](NC[C@H](O)COc3cccc(S(=O)(=O)C5CC5)c3)CO4)cnc12 [Compound 327, 3-((R)-3-((S)-3-(3-(cyclopropylsulfonyl)phenoxy)-2-hydroxypropylamino)-1-oxa-8-azaspiro[4.5]decan-8-ylsulfonyl)-8-methylquinolin-4-ol]
  IC50: 28.9 nM

## O=S(=O)(c1cccc(OC[C@@H](O)CN[C@H]2COC3(CCN(S(=O)(=O)c4cnc5c(F)cccc5c4O)CC3)C2)c1)C1CC1 [Compound 328, 3-((R)-3-((S)-3-(3-(cyclopropylsulfonyl)phenoxy)-2-hydroxypropylamino)-1-oxa-8-azaspiro[4.5]decan-8-ylsulfonyl)-8-fluoroquinolin-4-ol]
  IC50: 35.4 nM

## O=S(=O)(c1cccc(OC[C@@H](O)CN[C@H]2COC3(CCN(S(=O)(=O)c4cnc5cc(F)ccc5c4O)CC3)C2)c1)C1CC1 [Compound 329, 3-((R)-3-((S)-3-(3-(cyclopropylsulfonyl)phenoxy)-2-hydroxypropylamino)-1-oxa-8-azaspiro[4.5]decan-8-ylsulfonyl)-7-fluoroquinolin-4-ol]
  IC50: 29.5 nM

## Cc1ccc2c(O)c(S(=O)(=O)N3CCC4(CC3)C[C@@H](NC[C@H](O)COc3cccc(S(=O)(=O)C5CC5)c3)CO4)cnc2c1 [Compound 330, 3-((R)-3-((S)-3-(3-(cyclopropylsulfonyl)phenoxy)-2-hydroxypropylamino)-1-oxa-8-azaspiro[4.5]decan-8-ylsulfonyl)-7-methylquinolin-4-ol]
  IC50: 70.1 nM

## CCn1cc(S(=O)(=O)N2CCC3(CC2)C[C@@H](NC[C@H](O)COc2cccc(S(=O)(=O)C(C)C)c2)CO3)c(=O)c2cccc(F)c21 [Compound 331, 1-ethyl-8-fluoro-3-((R)-3-((S)-2-hydroxy-3-(3-(isopropylsulfonyl)phenoxy)propylamino)-1-oxa-8-azaspiro[4.5]decan-8-ylsulfonyl)quinolin-4(1H)-one]
  IC50: 30 nM

## CCn1cc(S(=O)(=O)N2CCC3(CC2)C[C@@H](NC[C@H](O)COc2cccc(S(=O)(=O)C(C)C)c2)CO3)c(=O)c2ccccc21 [Compound 332, 1-ethyl-3-((R)-3-((S)-2-hydroxy-3-(3-(isopropylsulfonyl)phenoxy)propylamino)-1-oxa-8-azaspiro[4.5]decan-8-ylsulfonyl)quinolin-4(1H)-one]
  IC50: 42.3 nM

## CCn1cc(S(=O)(=O)N2CCC3(CC2)C[C@@H](NC[C@H](O)COc2cccc(S(=O)(=O)C4CC4)c2)CO3)c(=O)c2cccc(F)c21 [Compound 333, 3-((R)-3-((S)-3-(3-(cyclopropylsulfonyl)phenoxy)-2-hydroxypropylamino)-1-oxa-8-azaspiro[4.5]decan-8-ylsulfonyl)-1-ethyl-8-fluoroquinolin-4(1H)-one]
  IC50: 16.3 nM

## CS(=O)(=O)c1ccc(OC[C@@H](O)CNC2COC3(CCN(S(=O)(=O)c4ccc5ccccc5c4)CC3)C2)cc1 (stereo partly drawn) [Compound 334, (2S)-1-(4-(methylsulfonyl)phenoxy)-3-(8-(naphthalen-2-ylsulfonyl)-1-oxa-8-azaspiro[4.5]decan-3-ylamino)propan-2-ol]
  IC50: 79.9 nM

## CS(=O)(=O)Cc1cccc(OC[C@@H](O)CNC2COC3(CCN(S(=O)(=O)c4ccc5ccccc5c4)CC3)C2)c1 (stereo partly drawn) [Compound 335, (2S)-1-(3-(methylsulfonylmethyl)phenoxy)-3-(8-(naphthalen-2-ylsulfonyl)-1-oxa-8-azaspiro[4.5]decan-3-ylamino)propan-2-ol]
  IC50: 14.4 nM
